Assay results as given in patent US10208007B2, “Use of strigolactones and strigolactone analogs for treating proliferative conditions” (The State of Israel, Ministry of Agriculture & Rural …, priority 2011, dated 2019).

What was measured:
[1] = tested on: U20S cells; test: Strigolactone analog induced gene expression changes; format: cell-based, human; settings: 5 ppm
Procedure: To further elucidate the transcriptional program by which strigolactone analogs may affect growth and survival of cancer cells, U20S cells were treated with ST-362 or MEB-55 (5 ppm) for either 6 or 24 hours to permit early and late gene expression changes to be distinguished. U20S cells were selected based on their enhanced sensitivity to strigolactone treatment (see FIG. 7). […] Up-regulation of cytokines (CCL3L3, GDF15) and growth factors (PGF), and down-regulation of TGFBR11 was also noted. Apoptosis regulating genes were also identified, including DDIT3, BIRC3 and BAG3. DDIT3 encodes a member of the CCAAT/enhancer-binding protein (C/EBP) family of transcription factors and functions as a dominant-negative inhibitor by forming heterodimers with other C/EBP members and preventing their DNA binding activity. DDIT3 is induced by stress, including DNA damage and DDIT3 over-expression can induce cell cycle arrest. After 6 hours, MEB-55 treatment was associated with increased expression of p21cip (CDKN1A), Cyclin F (CCNF), Cyclin A2 (CCNA2) and decreased expression of CDK6, whereas ST-362 induced only a modest down-regulation of Cyclin B1 (CCNB1). Therefore, changes in the expression profile of cell cycle regulators, was not a global hallmark of strigolactone exposure. The only exception was Cyclin G2 (CCNG2) whose expression was elevated in both ST-362 and MEB-55 treatment groups. Cyclin G2 is an unconventional cyclin homolog which is linked to growth inhibition and whose expression is induced by DNA damaging chemotherapeutics.

[2] = tested on: Cyclin B1; test: Western blot analysis of cyclin B1 levels; format: cell-based, human; settings: DU145, 24 hour treatment, then ALLN 4 or 8 hours
[3] = tested on: CYCB1; test: Gene transcription level by quantitative PCR: CYCB1; format: in vivo, Arabidopsis thaliana; settings: for CYCB1 transcription level versus controls: 3 μM
Procedure: Seeds of homozygous lines of Arabidopsis thaliana wild type (WT; Columbia; Col-0) and max2-1 mutant (http://abrc.osu.edu/) were surface-sterilized and germinated on 1/2 Murashige and Skoog (MS) plates supplemented with 1% sucrose and solidified with 0.7% agar. Plates were incubated vertically in the dark at 4° C. for two days to synchronize germination. Three days after germination, seedlings were gently transferred using forceps to 1/2 MS plates containing various concentrations of GR-24 as a mixture of four diastereomers: (±)-GR-24 and (±)-2'-epi-GR-24. The root tip of the transferred seedling was marked on the plates. The plates remained unsealed to prevent accumulation of gases (e.g., ethylene), and were positioned in an upright 45° position, and incubated at 22° C. with a light intensity of […] photons m-2 s-1 provided by white fluorescent tubes and under a photoperiod of 16 hours exposure to light/8 hours in the dark for 6-12 days. GR-24 treatments were conducted at concentrations ranging from 2.7×10^-6 to 13.5×10^-6 M. […] GR-24, ST-357 and ST-362 were initially dissolved in acetone to give a 4.5 mM, 10 μM and 10 μM solutions, respectively, which were then further diluted with double-distilled sterile water (DDW). […] In each of the experiments, non-treated roots were compared to the respective acetone control. Where no difference was observed between the various controls, non-treated roots are shown. Where differences were recorded between non-treated and acetone controls, the comparison was made between GR-24, ST-357 and ST-362-treated and acetone-treated roots. RNA was extracted from seedlings grown and treated as described in Example 1. Quantitative PCR was performed by amplifying fragments of genes of interest (Tables 6 & 7). Arabidopsis 15S ribosomal RNA (GenBank accession no. AT1G04270.1) served as the reference gene for the amount of RNA, and was amplified using specific primers (forward) [NT] and (reverse) [NT]. The experiment was performed in 5-6 biological replicates; each replicate included 8 plants, on which 3 technical repeats were performed. Means and standard error were determined from all biological replicates. Primers were designed using PrimerQuest software (Integrated DNA Technologies). RNA was extracted using Trizol (Invitrogen, Carlsbad, Calif., USA) using the manufacturer's protocol. 1 μg RNA was reverse-transcribed in a total volume of 20 μl using the Superscript First strand cDNA synthesis kit (Invitrogen). PCR was performed in triplicate using an ABI-Prism 7900 instrument (Applied Biosystems, Foster City, Calif.) and SYBR Green I detection (Applied Biosystems) according to the manufacturer's protocol. The expression of each target gene was normalized to the expression of GAPDH RNA and is presented as the ratio of the target gene to GAPDH RNA, expressed as 2-ΔCt, where Ct is the threshold cycle and ΔCt=[NT] GAPDH.

With `CC1=CC(O/C=C2\Cc3c(n(C)c4cc(-c5cccs5)ccc34)C2=O)OC1=O` (racemic) [MEB-55, (±) 2E-4-methyl-2-(4-methyl-5-oxo-2,5-dihydrofuran-2-yloxymethylene)-6-thiophen-2-yl-1,4-dihydro-2H-cyclopenta[b]indol-3-one] the “Fold-Change ABCB1” value ([1]; 6 hours) was 8.1 fold, the “Fold-Change AHSA1” value ([1]; 6 hours) was 2.6 fold and the “Fold-Change ALDH1B1” value ([1]; 6 hours) was −3.1 fold. For the same compound, the “Fold-Change ATF3” value ([1]; 6 hours) was 4.0 fold, the “Fold-Change BAG3” value ([1]; 6 hours) was 7.7 fold and the “Fold-Change BIRC3” value ([1]; 6 hours) was −3.2 fold. For the same compound, the “Fold-Change CCNG2” value ([1]; 6 hours) was 3.1 fold, the “Fold-Change CLDN12” value ([1]; 6 hours) was 2.5 fold and the “Fold-Change CYP24A1” value ([1]; 6 hours) was −3.6 fold. The “Fold-Change DDIT3” value ([1]; 6 hours) was 14.1 fold, the “Fold-Change FGF2” value ([1]; 6 hours) was 2.1 fold and the “Fold-Change FOXD1” value ([1]; 6 hours) was −2.7 fold. For the same compound, the “Fold-Change FOXO4” value ([1]; 6 hours) was 2.2 fold, the “Fold-Change GDF15” value ([1]; 6 hours) was 19.0 fold and the “Fold-Change GEM” value ([1]; 6 hours) was 4.9 fold. For the same compound, the “Fold-Change HSPA1A” value ([1]; 6 hours) was 12.4 fold, the “Fold-Change HSPA1B” value ([1]; 6 hours) was 12.4 fold and the “Fold-Change HSPA1L” value ([1]; 6 hours) was 3.9 fold. For the same compound, the “Fold-Change HSPA6” value ([1]; 6 hours) was 158.7 fold, the “Fold-Change HSPA7” value ([1]; 6 hours) was 55.7 fold and the “Fold-Change HSPB8” value ([1]; 6 hours) was 3.6 fold. The “Fold-Change PGF” value ([1]; 6 hours) was 7.0 fold, the “Fold-Change PPP1R15A” value ([1]; 6 hours) was 3.7 fold and the “Fold-Change PTGS2” value ([1]; 6 hours) was 6.9 fold. The “Fold-Change SLC3A2” value ([1]; 6 hours) was 3.4 fold, the “Fold-Change SLC7A11” value ([1]; 6 hours) was 2.1 fold and the “Fold-Change SLC44A2” value ([1]; 6 hours) was 2.1 fold. The “Fold-Change TGFBR2” value ([1]; 6 hours) was −2.3 fold, the “Fold-Change ABCA13” value ([1]; 24 hours) was −2.6 fold and the “Fold-Change AMPH” value ([1]; 24 hours) was −2.7 fold. For the same compound, the “Fold-Change BIRC3” value ([1]; 24 hours) was 2.4 fold, the “Fold-Change CCL20” value ([1]; 24 hours) was 11.9 fold and the “Fold-Change CTGF” value ([1]; 24 hours) was 2.1 fold. The “Fold-Change CYR61” value ([1]; 24 hours) was 2.2 fold, the “Fold-Change DHRS2” value ([1]; 24 hours) was −2.3 fold and the “Fold-Change DUSP5” value ([1]; 24 hours) was 3.8 fold. For the same compound, the “Fold-Change E2F2” value ([1]; 24 hours) was −2.2 fold, the “Fold-Change EGR1” value ([1]; 24 hours) was 2.7 fold and the “Fold-Change ESM1” value ([1]; 24 hours) was 21.2 fold. The “Fold-Change GDF15” value ([1]; 24 hours) was 2.2 fold, the “Fold-Change HSPA5” value ([1]; 24 hours) was −2.1 fold and the “Fold-Change ITGA2” value ([1]; 24 hours) was 3.6 fold. The “Fold-Change KIF20A” value ([1]; 24 hours) was −2.4 fold, the “Fold-Change LAMA1” value ([1]; 24 hours) was 2.1 fold and the “Fold-Change RN7SK” value ([1]; 24 hours) was 15.3 fold. For the same compound, the “Fold-Change SCG5” value ([1]; 24 hours) was 4.9 fold, the “Fold-Change SLC7A11” value ([1]; 24 hours) was 4.1 fold and the “Fold-Change SNORD3A” value ([1]; 24 hours) was 4.2 fold. For the same compound, the “Fold-Change SNORD3C” value ([1]; 24 hours) was 4.8 fold, the “Fold-Change SNORD3D” value ([1]; 24 hours) was 4.8 fold and the “Fold-Change SPP1” value ([1]; 24 hours) was 6.6 fold. The “Fold-Change TGFBI” value ([1]; 24 hours) was −2.0 fold and the “Partial rescue of Cyclin B1 levels by ALLN” value [2] was 1.3 fold.

With `CC1=C[C@H](O/C=C2/C(=O)O[C@@H]3c4ccccc4C[C@H]23)OC1=O` (relative stereo) [GR-24, (3aR*,8bS*,E)-3-(((R*)-4-methyl-5-oxo-2,5-dihydrofuran-2-yloxy)methylene)-3,3a,4,8b-tetrahydro-2H-indeno[1,2-b]furan-2-one] the “CYCB1 transcription level versus controls” value ([3]; WT seedlings) was 0.008 ± 0.003, the “CYCB1 transcription level versus controls” value ([3]; max2-1 seedlings) was 0.211 ± 0.078 and the “CYCB1 transcription relative to controls” value ([3]; root tips, 2.7 μM) was 0.97±0.47. For the same compound, the “CYCB1 transcription in comparison to controls” value ([3]; root tips, 13.5 μM) was 0.16±0.00.

`CC1=CC(O/C=C2/C(=O)c3c(c4cc(-c5cccs5)ccc4n3C)C2C)OC1=O` (centres unmarked) [ST-357, (2E)-1,4-dimethyl-2-((4-methyl-5-oxo-2,5-dihydrofuran-2-yloxy)methylene)-7-(thiophen-2-yl)-1,2-dihydrocyclopenta[b]indol-3(4H)-one] was tested, and the “CYCB1 transcription level versus controls” value ([3]; WT seedlings) was 0.460 ± 0.362.

With `CC1=CC(O/C=C2/C(=O)c3c(c4cc(-c5scc6c5OCCO6)ccc4n3C)C2C)OC1=O` (centres unmarked) [ST-362, (2E)-2-[(2,5-dihydro-4-methyl-5-oxofuran-2-yloxy)methylene]-1,2-dihydro-7-(2,3-dihydrothieno[3,4-b][1,4]dioxin-7-yl)-1,4-dimethyl-cyclopenta[b]indole-3-(4H)-one] the “Fold-Change ABCB1” value ([1]; 6 hours) was 3.6 fold, the “Fold-Change AHSA1” value ([1]; 6 hours) was 2.1 fold and the “Fold-Change ALDH1B1” value ([1]; 6 hours) was −2.1 fold. For the same compound, the “Fold-Change ATF3” value ([1]; 6 hours) was 2.2 fold, the “Fold-Change BAG3” value ([1]; 6 hours) was 4.6 fold and the “Fold-Change BIRC3” value ([1]; 6 hours) was −2.4 fold. The “Fold-Change CCL3L3” value ([1]; 6 hours) was 3.7 fold, the “Fold-Change CCNB1” value ([1]; 6 hours) was −2.1 fold and the “Fold-Change CCNG2” value ([1]; 6 hours) was 3.6 fold. For the same compound, the “Fold-Change CLDN12” value ([1]; 6 hours) was 2.3 fold, the “Fold-Change CYP24A1” value ([1]; 6 hours) was −2.6 fold and the “Fold-Change DDIT3” value ([1]; 6 hours) was 6.2 fold. The “Fold-Change FOXD1” value ([1]; 6 hours) was −2.4 fold, the “Fold-Change FOXO4” value ([1]; 6 hours) was 2.5 fold and the “Fold-Change GDF15” value ([1]; 6 hours) was 7.6 fold. For the same compound, the “Fold-Change GEM” value ([1]; 6 hours) was 2.4 fold, the “Fold-Change HSPA1A” value ([1]; 6 hours) was 7.3 fold and the “Fold-Change HSPA1B” value ([1]; 6 hours) was 9.2 fold. The “Fold-Change HSPA1L” value ([1]; 6 hours) was 2.7 fold, the “Fold-Change HSPA6” value ([1]; 6 hours) was 79.8 fold and the “Fold-Change HSPA7” value ([1]; 6 hours) was 23.3 fold. For the same compound, the “Fold-Change HSPB8” value ([1]; 6 hours) was 2.7 fold, the “Fold-Change PGF” value ([1]; 6 hours) was 6.2 fold and the “Fold-Change PPP1R15A” value ([1]; 6 hours) was 2.7 fold. The “Fold-Change PTGS2” value ([1]; 6 hours) was 3.4 fold, the “Fold-Change SLC3A2” value ([1]; 6 hours) was 3.6 fold and the “Fold-Change SLC7A11” value ([1]; 6 hours) was 2.2 fold. For the same compound, the “Fold-Change SLC31A2” value ([1]; 6 hours) was 2.3 fold, the “Fold-Change SLC44A2” value ([1]; 6 hours) was 2.5 fold and the “Fold-Change TGFBR2” value ([1]; 6 hours) was −2.0 fold. The “Fold-Change ABCA13” value ([1]; 24 hours) was −2.8 fold, the “Fold-Change AMPH” value ([1]; 24 hours) was −3.5 fold and the “Fold-Change BIRC3” value ([1]; 24 hours) was 2.6 fold. For the same compound, the “Fold-Change CCL20” value ([1]; 24 hours) was 6.6 fold, the “Fold-Change CCNB1” value ([1]; 24 hours) was −2.2 fold and the “Fold-Change CCNG2” value ([1]; 24 hours) was 2.7 fold. The “Fold-Change CTGF” value ([1]; 24 hours) was 2.4 fold, the “Fold-Change CYR61” value ([1]; 24 hours) was 3.6 fold and the “Fold-Change DHRS2” value ([1]; 24 hours) was −2.5 fold. The “Fold-Change DUSP5” value ([1]; 24 hours) was 3.9 fold, the “Fold-Change E2F2” value ([1]; 24 hours) was −3.3 fold and the “Fold-Change EGR1” value ([1]; 24 hours) was 2.2 fold. The “Fold-Change ESM1” value ([1]; 24 hours) was 6.9 fold, the “Fold-Change GDF15” value ([1]; 24 hours) was 4.2 fold and the “Fold-Change HSPA5” value ([1]; 24 hours) was −2.8 fold. The “Fold-Change ITGA2” value ([1]; 24 hours) was 3.4 fold, the “Fold-Change KIF20A” value ([1]; 24 hours) was −4.7 fold and the “Fold-Change LAMA1” value ([1]; 24 hours) was 3.0 fold. For the same compound, the “Fold-Change RN7SK” value ([1]; 24 hours) was 16.8 fold, the “Fold-Change SCG5” value ([1]; 24 hours) was 3.0 fold and the “Fold-Change SLC7A11” value ([1]; 24 hours) was 3.6 fold. For the same compound, the “Fold-Change SNORD3A” value ([1]; 24 hours) was 4.1 fold, the “Fold-Change SNORD3C” value ([1]; 24 hours) was 4.0 fold and the “Fold-Change SNORD3D” value ([1]; 24 hours) was 4.8 fold. The “Fold-Change SPP1” value ([1]; 24 hours) was 3.9 fold, the “Fold-Change TGFBI” value ([1]; 24 hours) was −3.4 fold and the “CYCB1 transcription level versus controls” value ([3]; WT seedlings) was 0.008 ± 0.007. The “Partial rescue of Cyclin B1 levels by ALLN” value [2] was 2 fold.
